The source of these data is the supplement of paper PMC10307832.

Holding throughout (assay): relative viability (nuclei count vs DMSO), 5 days (fraction); higher = more cells survive
Compound in the experiment “BX 795 + Bortezomib”: O=C(NCCCNc1nc(Nc2cccc(NC(=O)N3CCCC3)c2)ncc1I)c1cccs1 [BX 795] + CC(C)C[C@H](NC(=O)[C@H](Cc1ccccc1)NC(=O)c1cnccn1)B(O)O [Bortezomib] (partner 0.002 µM)
The method in brief: (§1)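 One day after seeding in 1536-well plates, lung cancer cell lines were dosed by pin tool. Dosing was either single-drug or a fixed anchor-drug dose plus five library-drug doses (not always all listed) in √10 steps. After 5 days, nuclei were stained in one fix-and-stain step and counted on 4× images, and relative viability is the nuclei count of treated wells over that of vehicle wells, given as the median of duplicate plates.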

Compound in the experiment “BX 795 + Foretinib”: O=C(NCCCNc1nc(Nc2cccc(NC(=O)N3CCCC3)c2)ncc1I)c1cccs1 [BX 795] + COc1cc2c(Oc3ccc(NC(=O)C4(C(=O)Nc5ccc(F)cc5)CC4)cc3F)ccnc2cc1OCCCN1CCOCC1 [Foretinib] (partner 0.25 µM)
The method in brief:
as §1

Compound in the experiment “BX 795 + Pemetrexed”: O=C(NCCCNc1nc(Nc2cccc(NC(=O)N3CCCC3)c2)ncc1I)c1cccs1 [BX 795] + Nc1nc2[nH]cc(CCc3ccc(C(=O)N[C@@H](CCC(=O)O)C(=O)O)cc3)c2c(=O)[nH]1 [Pemetrexed] (partner 0.2 µM)
The method in brief:
as §1

Compound in the experiment “BX 795 + Trametinib”: O=C(NCCCNc1nc(Nc2cccc(NC(=O)N3CCCC3)c2)ncc1I)c1cccs1 [BX 795] + CC(=O)Nc1cccc(-n2c(=O)n(C3CC3)c(=O)c3c(Nc4ccc(I)cc4F)n(C)c(=O)c(C)c32)c1 [Trametinib] (partner 0.02 µM)
The method in brief: as §1

Compound in the experiment “BX 795 + Tozasertib”: O=C(NCCCNc1nc(Nc2cccc(NC(=O)N3CCCC3)c2)ncc1I)c1cccs1 [BX 795] + Cc1cc(Nc2cc(N3CCN(C)CC3)nc(Sc3ccc(NC(=O)C4CC4)cc3)n2)n[nH]1 [Tozasertib] (partner 0.1 µM)
Put shortly: as §1

Take NCI-H1563: the relative viability with BX 795 + Bortezomib (first compound 0.04 µM) is 0.822; with BX 795 + Bortezomib (first compound 0.1265 µM), 0.844; with BX 795 + Bortezomib (first compound 0.4 µM) it was 0.993; in the experiment with BX 795 + Bortezomib (first compound 1.265 µM), 0.752; with BX 795 + Foretinib (first compound 0.04 µM) it was 0.914; with BX 795 + Foretinib (first compound 0.1265 µM), 1.04. In addition, the relative viability with BX 795 + Foretinib (first compound 0.4 µM) is 0.925; with BX 795 + Foretinib (first compound 1.265 µM) it was 0.848; in the experiment with BX 795 + Pemetrexed (first compound 0.04 µM), 0.977; with BX 795 + Pemetrexed (first compound 0.1265 µM) it was 0.759; in the experiment with BX 795 + Pemetrexed (first compound 0.4 µM), 0.857; with BX 795 + Pemetrexed (first compound 1.265 µM), 0.746.
As for SK-MES-1, the relative viability stood at 0.574 in the experiment with BX 795 + Trametinib (first compound 0.04 µM); 0.46 with BX 795 + Trametinib (first compound 0.1265 µM); 0.519 with BX 795 + Trametinib (first compound 0.4 µM); 0.396 with BX 795 + Trametinib (first compound 1.265 µM); 0.917 with BX 795 + Foretinib (first compound 0.04 µM); 0.971 with BX 795 + Foretinib (first compound 0.1265 µM). The relative viability in the experiment with BX 795 + Foretinib (first compound 0.4 µM) is 0.823; with BX 795 + Foretinib (first compound 1.265 µM) it was 0.674; with BX 795 + Tozasertib (first compound 0.04 µM) it was 0.883; in the experiment with BX 795 + Tozasertib (first compound 0.1265 µM), 0.832; with BX 795 + Tozasertib (first compound 0.4 µM) it was 0.905; with BX 795 + Tozasertib (first compound 1.265 µM), 0.223. Also, the relative viability amounted to 0.923 in the experiment with BX 795 + Pemetrexed (first compound 0.04 µM), 0.854 with BX 795 + Pemetrexed (first compound 0.1265 µM), 0.612 in the experiment with BX 795 + Pemetrexed (first compound 0.4 µM) and 0.649 with BX 795 + Pemetrexed (first compound 1.265 µM).
With NCI-H661, the relative viability in the experiment with BX 795 + Trametinib (first compound 0.04 µM) amounted to 0.62; with BX 795 + Trametinib (first compound 0.1265 µM), 0.583; with BX 795 + Trametinib (first compound 0.4 µM), 0.55; with BX 795 + Trametinib (first compound 1.265 µM), 0.564; with BX 795 + Bortezomib (first compound 0.04 µM), 0.767; with BX 795 + Bortezomib (first compound 0.1265 µM), 0.806. The relative viability with BX 795 + Bortezomib (first compound 0.4 µM) was 0.695; with BX 795 + Bortezomib (first compound 1.265 µM), 0.706; with BX 795 + Foretinib (first compound 0.04 µM), 1.09; in the experiment with BX 795 + Foretinib (first compound 0.1265 µM) it was 1.04; with BX 795 + Foretinib (first compound 0.4 µM), 1.03; in the experiment with BX 795 + Foretinib (first compound 1.265 µM) it was 0.908. Further, the relative viability worked out at 0.374 with BX 795 + Tozasertib (first compound 0.04 µM); 0.369 with BX 795 + Tozasertib (first compound 0.1265 µM); 0.378 in the experiment with BX 795 + Tozasertib (first compound 0.4 µM); 0.412 with BX 795 + Tozasertib (first compound 1.265 µM); 0.855 with BX 795 + Pemetrexed (first compound 0.04 µM); 0.98 with BX 795 + Pemetrexed (first compound 0.1265 µM). Also, the relative viability in the experiment with BX 795 + Pemetrexed (first compound 0.4 µM) stood at 0.521; in the experiment with BX 795 + Pemetrexed (first compound 1.265 µM), 0.784.
As for COR-L 105, the relative viability came to 0.47 with BX 795 + Trametinib (first compound 0.04 µM); 0.403 in the experiment with BX 795 + Trametinib (first compound 0.1265 µM); 0.389 with BX 795 + Trametinib (first compound 0.4 µM); 0.421 in the experiment with BX 795 + Trametinib (first compound 1.265 µM); 0.586 with BX 795 + Bortezomib (first compound 0.04 µM); 0.577 with BX 795 + Bortezomib (first compound 0.1265 µM). Moreover, the relative viability was 0.613 in the experiment with BX 795 + Bortezomib (first compound 0.4 µM); 0.327 in the experiment with BX 795 + Bortezomib (first compound 1.265 µM); 1.29 with BX 795 + Foretinib (first compound 0.04 µM); 0.962 with BX 795 + Foretinib (first compound 0.1265 µM); 0.861 with BX 795 + Foretinib (first compound 0.4 µM); 0.662 with BX 795 + Foretinib (first compound 1.265 µM). Besides, the relative viability with BX 795 + Tozasertib (first compound 0.04 µM) is 0.391; with BX 795 + Tozasertib (first compound 0.1265 µM) it was 0.362; with BX 795 + Tozasertib (first compound 0.4 µM) it was 0.405; with BX 795 + Tozasertib (first compound 1.265 µM), 0.267; with BX 795 + Pemetrexed (first compound 0.04 µM), 1.12; with BX 795 + Pemetrexed (first compound 0.1265 µM) it was 1.02. In addition, the values for the relative viability in the experiment with BX 795 + Pemetrexed (first compound 0.4 µM) and in the experiment with BX 795 + Pemetrexed (first compound 1.265 µM) were 0.816 and 0.882, respectively.
Turning to NCI-H2342, the relative viability with BX 795 + Trametinib (first compound 0.04 µM) turned out to be 0.796; in the experiment with BX 795 + Trametinib (first compound 0.1265 µM), 0.774; with BX 795 + Trametinib (first compound 0.4 µM) it was 0.892; with BX 795 + Trametinib (first compound 1.265 µM), 0.766; with BX 795 + Foretinib (first compound 0.04 µM), 1.17; with BX 795 + Foretinib (first compound 0.1265 µM), 0.896. Further, the relative viability in the experiment with BX 795 + Foretinib (first compound 0.4 µM) amounted to 1.07; in the experiment with BX 795 + Foretinib (first compound 1.265 µM) it was 0.914; with BX 795 + Tozasertib (first compound 0.04 µM) it was 0.579; with BX 795 + Tozasertib (first compound 0.1265 µM), 0.471; with BX 795 + Tozasertib (first compound 0.4 µM), 0.507; with BX 795 + Tozasertib (first compound 1.265 µM) it was 0.46. In addition, the relative viability is 0.782 with BX 795 + Pemetrexed (first compound 0.04 µM), 0.718 with BX 795 + Pemetrexed (first compound 0.1265 µM), 0.758 with BX 795 + Pemetrexed (first compound 0.4 µM) and 0.715 with BX 795 + Pemetrexed (first compound 1.265 µM).
As for NCI-H520, the relative viability with BX 795 + Trametinib (first compound 0.04 µM) worked out at 0.568; in the experiment with BX 795 + Trametinib (first compound 0.1265 µM), 0.723; with BX 795 + Trametinib (first compound 0.4 µM), 0.593; in the experiment with BX 795 + Trametinib (first compound 1.265 µM), 0.362; with BX 795 + Bortezomib (first compound 0.04 µM) it was 0.355; with BX 795 + Bortezomib (first compound 0.1265 µM), 0.36. In addition, the relative viability was determined as 0.356 with BX 795 + Bortezomib (first compound 0.4 µM); 0.308 in the experiment with BX 795 + Bortezomib (first compound 1.265 µM); 0.555 in the experiment with BX 795 + Foretinib (first compound 0.04 µM); 0.772 with BX 795 + Foretinib (first compound 0.1265 µM); 0.832 with BX 795 + Foretinib (first compound 0.4 µM); 0.365 in the experiment with BX 795 + Foretinib (first compound 1.265 µM). Further, the relative viability was found to be 0.44 with BX 795 + Tozasertib (first compound 0.04 µM); 0.447 in the experiment with BX 795 + Tozasertib (first compound 0.1265 µM); 0.421 in the experiment with BX 795 + Tozasertib (first compound 0.4 µM); 0.401 in the experiment with BX 795 + Tozasertib (first compound 1.265 µM); 0.393 with BX 795 + Pemetrexed (first compound 0.04 µM); 0.7 in the experiment with BX 795 + Pemetrexed (first compound 0.1265 µM). In addition, the relative viability in the experiment with BX 795 + Pemetrexed (first compound 0.4 µM) turned out to be 0.341; in the experiment with BX 795 + Pemetrexed (first compound 1.265 µM) it was 0.335.
As for NCI-H1975, the relative viability is 0.383 with BX 795 + Trametinib (first compound 0.04 µM); 0.358 in the experiment with BX 795 + Trametinib (first compound 0.1265 µM); 0.316 in the experiment with BX 795 + Trametinib (first compound 0.4 µM); 0.316 in the experiment with BX 795 + Trametinib (first compound 1.265 µM); 0.332 in the experiment with BX 795 + Bortezomib (first compound 0.04 µM); 0.414 with BX 795 + Bortezomib (first compound 0.1265 µM). Moreover, the relative viability with BX 795 + Bortezomib (first compound 0.4 µM) is 0.392; with BX 795 + Bortezomib (first compound 1.265 µM), 0.249; with BX 795 + Foretinib (first compound 0.04 µM), 0.833; with BX 795 + Foretinib (first compound 0.1265 µM) it was 1.11; in the experiment with BX 795 + Foretinib (first compound 0.4 µM), 0.972; with BX 795 + Foretinib (first compound 1.265 µM), 0.898. Further, the relative viability stood at 0.707 with BX 795 + Tozasertib (first compound 0.04 µM); 0.794 with BX 795 + Tozasertib (first compound 0.1265 µM); 0.623 with BX 795 + Tozasertib (first compound 0.4 µM); 0.234 with BX 795 + Tozasertib (first compound 1.265 µM); 0.272 with BX 795 + Pemetrexed (first compound 0.04 µM); 0.299 with BX 795 + Pemetrexed (first compound 0.1265 µM). The values for the relative viability with BX 795 + Pemetrexed (first compound 0.4 µM) and with BX 795 + Pemetrexed (first compound 1.265 µM) were 0.247 and 0.297, respectively.
For the cell line NCI-H2009, the relative viability with BX 795 + Trametinib (first compound 0.04 µM) worked out at 0.264; with BX 795 + Trametinib (first compound 0.1265 µM) it was 0.227; with BX 795 + Trametinib (first compound 0.4 µM), 0.274; in the experiment with BX 795 + Trametinib (first compound 1.265 µM) it was 0.179; with BX 795 + Bortezomib (first compound 0.04 µM), 0.97; with BX 795 + Bortezomib (first compound 0.1265 µM) it was 0.924. Also, the relative viability with BX 795 + Bortezomib (first compound 0.4 µM) was 0.996; with BX 795 + Bortezomib (first compound 1.265 µM) it was 0.804; with BX 795 + Foretinib (first compound 0.04 µM), 1.21; with BX 795 + Foretinib (first compound 0.1265 µM) it was 1.19; in the experiment with BX 795 + Foretinib (first compound 0.4 µM), 1.16; with BX 795 + Foretinib (first compound 1.265 µM), 1.11. The relative viability with BX 795 + Tozasertib (first compound 0.04 µM) was 0.705; in the experiment with BX 795 + Tozasertib (first compound 0.1265 µM) it was 0.714; with BX 795 + Tozasertib (first compound 0.4 µM), 0.678; in the experiment with BX 795 + Tozasertib (first compound 1.265 µM), 0.381; in the experiment with BX 795 + Pemetrexed (first compound 0.04 µM), 0.973; with BX 795 + Pemetrexed (first compound 0.1265 µM), 0.978. Besides, the relative viability in the experiment with BX 795 + Pemetrexed (first compound 0.4 µM) worked out at 1.04; in the experiment with BX 795 + Pemetrexed (first compound 1.265 µM) it was 0.907.
